Our source for the EC50, IC50 and CC50 values is patent publication US20240199647A1, “ANTI-VIRAL COMPOUNDS” (Aligos Therapeutics, Inc., priority 2022, published 2024).

Structures are written as SMILES. Like-named read-outs stand apart in the source and are kept apart here.

Series [1] deals with human beta-coronavirus OC43. Put plainly: OC43 Coronavirus Assay in HeLa cells (antiviral, cytopathic effect, cell-titer-glo). Format: cell-based. Particulars: Betacoronavirus 1, OC43, HeLa, Table B; OC43 coronavirus in HeLa cells, class symbols; read-out: EC50. On the technique in general: Protection from cytopathic effect is a common read-out in antiviral testing.
The target of series [2] is SARS-Cov-2 3CLpro (Severe acute respiratory syndrome coronavirus 2, UniProt P0DTD1). Put plainly: biochemical. Particulars: Table A, class symbols, read-out: SARS-Cov-2 (IC50).
A short description of series [3]: in vitro. The following applies: human.
Series [4] in a line: Cytotoxicity in HeLa cells without addition of OC43 virus (in parallel). Particulars: human, HeLa cells, without OC43 virus.
Series [5] has as its system SARS-CoV-2 B.1.1.7 lineage. Put plainly: microbe, parasite or virus in culture. It counts as cell-based. Particulars: Severe acute respiratory syndrome coronavirus 2, Table C, SARS-CoV-2 B.1.1.7 in A549-dual_ACE2_TMPRSS2 cells, read-out: A549-dual_ACE2_TMPRSS2 (EC50).

In the case of `COc1ccc(Cl)c2[nH]c(C(=O)N(C)[C@@H](CC3CC3)C(=O)N3C[C@@]4(C[C@H]3C#N)Oc3cc(F)cc(F)c3NC4=O)cc12` [Compound 135], the concentration for a half-maximal effect (EC50) (commonly the concentration needed to bring the measured effect to its halfway point) in series [1] was below 100 nM; in series [5] (class symbols), 100 to 1000 nM. Moreover, in series [2], the IC50 – broadly, the point on the concentration scale where inhibition reaches its midpoint – was below 20 nM. The CC50 in series [3] was above 1000 nM. Moreover, the CC50 at 6 days in series [4] is above 10000 nM.
`CN(C(=O)C(O)c1ccc(F)cc1)[C@@H](CC1CC1)C(=O)N1C[C@@]2(C[C@H]1C#N)Oc1cc(F)cc(F)c1NC2=O` (stereo partly shown) [Compound 136]: the EC50 in series [1] and in series [5] (class symbols) was 100 to 1000 nM throughout. In addition, the 50% inhibitory concentration (IC50) in series [2] was below 20 nM. Moreover, in series [3], the CC50 was above 1000 nM. In series [4], this compound displayed a CC50 at 6 days above 10000 nM.
Turning to `CN(C(=O)c1cc2cccnc2[nH]1)[C@@H](CC1CC1)C(=O)N1C[C@@]2(C[C@H]1C#N)Oc1cc(F)cc(F)c1NC2=O` [Compound 137], the results for the EC50 in series [1] and in series [5] (class symbols) were 1000 to 10000 nM and 100 to 1000 nM, respectively. Further, the IC50 in series [2] was in the range of 20 to 200 nM. Moreover, in series [3], the CC50 is above 1000 nM. This compound also returned a CC50 at 6 days in series [4] above 10000 nM.
On to `CN(C(=O)C(O)C(C)(C)C)[C@@H](CC1CC1)C(=O)N1C[C@@]2(C[C@H]1C#N)Oc1cc(F)cc(F)c1NC2=O` (stereo partly shown) [Compound 138], for which the EC50 in series [1] and in series [5] (class symbols) was 100 to 1000 nM each time. The IC50 in series [2] was below 20 nM. Further, in series [3], the CC50 is above 1000 nM. The CC50 at 6 days in series [4] is above 10000 nM.
On to `COC(=O)N[C@@H](CC1CC1)C(=O)N(C)[C@@H](CC1CC1)C(=O)N1C[C@@]2(C[C@H]1C#N)Oc1ccccc1CNC2=O` [Compound 139], for which the concentration giving a half-maximal response (EC50) in series [1] was below 100 nM; in series [5] (class symbols) it was 100 to 1000 nM. Besides, the IC50 in series [2] is below 20 nM. This compound had a CC50 in series [3] above 1000 nM. The same compound returned a CC50 at 6 days in series [4] above 10000 nM.
Regarding `CN(C(=O)c1cc2c(F)cc(F)c(F)c2[nH]1)[C@@H](CC1CC1)C(=O)N1C[C@@]2(C[C@H]1C#N)Oc1ccccc1CNC2=O` [Compound 140], the concentration for a half-maximal effect (EC50) in series [1] and in series [5] (class symbols) was below 100 nM throughout. Besides, in series [2], the half-maximal inhibitory concentration (IC50) is below 20 nM. The CC50 in series [3] is above 1000 nM. The same compound came in with a CC50 at 6 days in series [4] above 10000 nM.
With `CN(C(=O)[C@H](CC1CC1)NC(=O)C(F)(F)F)[C@@H](CC1CC1)C(=O)N1C[C@@]2(C[C@H]1C#N)Oc1cccc(F)c1CNC2=O` [Compound 141], the 50% effective concentration (EC50) in series [1] was below 100 nM; in series [5] (class symbols), 100 to 1000 nM. Besides, in series [2], the concentration for half-maximal inhibition (IC50) is below 20 nM. Also, the CC50 in series [3] was above 1000 nM. The compound further displayed a CC50 at 6 days in series [4] above 10000 nM.
For `CN(C(=O)[C@H](CC1CC1)NC(=O)C(F)(F)F)[C@@H](CC1CC1)C(=O)N1C[C@@]2(C[C@H]1C#N)Oc1cc(F)ccc1CNC2=O` [Compound 142], in that order: below 100 nM, below 100 nM, below 20 nM, above 1000 nM and above 10000 nM.
For `CN(C(=O)[C@H](CC1CC1)NC(=O)C(F)(F)F)[C@@H](CC1CC1)C(=O)N1C[C@@]2(C[C@H]1C#N)Oc1cc(C(=O)N3CCOCC3)ccc1NC2=O` [Compound 143], in that order: below 100 nM, 100 to 1000 nM, below 20 nM, above 1000 nM and above 10000 nM.
The like results for `C[C@H](NC(=O)C(F)(F)F)C(=O)N(C)[C@@H](CC1CC1)C(=O)N1C[C@@]2(C[C@H]1C#N)Oc1cc(F)cnc1NC2=O` [Compound 144] were, in that order, below 100 nM, 100 to 1000 nM, below 20 nM, above 1000 nM and above 10000 nM.
In the case of `Cc1cn([C@@H](CC2CC2)C(=O)N(C)[C@@H](CC2CC2)C(=O)N2C[C@@]3(C[C@H]2C#N)Oc2cc(F)cc(F)c2NC3=O)nn1` [Compound 146], the EC50 in series [1] and in series [5] (class symbols) was 100 to 1000 nM throughout. In addition, the half-inhibitory concentration (IC50) in series [2] was below 20 nM. In series [3], this compound had a CC50 above 1000 nM. This compound displayed a CC50 at 6 days in series [4] above 10000 nM.
Regarding `C[C@H](NC(=O)C(F)(F)F)C(=O)N(C)[C@@H](CC1CC1)C(=O)N1C[C@@]2(C[C@H]1C#N)Oc1cc(Cl)cnc1NC2=O` [Compound 147], the half-maximal effective concentration (EC50) in series [1] and in series [5] (class symbols) was below 100 nM throughout. Moreover, the half-maximal inhibitory concentration (IC50) in series [2] is below 20 nM. The CC50 in series [3] was above 1000 nM. Further, the CC50 at 6 days in series [4] is above 10000 nM.
For the compound `COc1ccc(C[C@@H](NC(=O)C(F)(F)F)C(=O)N(C)[C@@H](CC2CC2)C(=O)N2C[C@@]3(C[C@H]2C#N)Oc2cccnc2NC3=O)cc1` [Compound 149], the EC50 in series [1] and in series [5] (class symbols) was below 100 nM in each case. Besides, the IC50 in series [2] was below 20 nM. In addition, the CC50 in series [3] was above 1000 nM. This compound returned a CC50 at 6 days in series [4] above 10000 nM.
With `CN(C(=O)[C@H](CC(C)(C)C)n1cc(C2CC2)nn1)[C@@H](CC1CC1)C(=O)N1C[C@@]2(C[C@H]1C#N)Oc1cc(F)cc(F)c1NC2=O` [Compound 150], the EC50 in series [1] and in series [5] (class symbols) was below 100 nM each time. In addition, in series [2], the IC50 was below 20 nM. In addition, in series [3], the CC50 is above 1000 nM. This compound had a CC50 at 6 days in series [4] above 10000 nM.
For the compound `C[C@H](NC(=O)C(F)(F)F)C(=O)N(C)[C@H](C(=O)N1C[C@@]2(C[C@H]1C#N)Oc1cc(F)cc(F)c1NC2=O)[C@@H](C)OC(C)(C)C` [Compound 154], the results for the EC50 in series [1] and in series [5] (cells given as a bound) were 1000 to 10000 nM and above 1000 nM, respectively. The IC50 in series [2] was in the range of 200 to 2000 nM. In addition, the CC50 in series [3] was above 1000 nM. In addition, the CC50 at 6 days in series [4] was above 10000 nM.
Turning to `C[C@@H](C(=O)N(C)[C@@H](CC1CC1)C(=O)N1C[C@@]2(C[C@H]1C#N)Oc1cccnc1NC2=O)n1cc(C2CC2)nn1` [Compound 155], the EC50 in series [1] and in series [5] (class symbols) was 100 to 1000 nM throughout. Also, in series [2], the IC50 lay within 20 to 200 nM. In addition, the CC50 in series [3] was above 1000 nM. Moreover, the CC50 at 6 days in series [4] was above 10000 nM.
In the case of `CN(C(=O)[C@@H](COC(C)(C)C)NC(=O)C(F)(F)F)[C@@H](CC1CC1)C(=O)N1C[C@@]2(C[C@H]1C#N)Oc1cccnc1NC2=O` [Compound 156], the 50% effective concentration (EC50) was below 100 nM in series [1] and 100 to 1000 nM in series [5] (class symbols). Further, in series [2], the IC50 is below 20 nM. The compound further had a CC50 in series [3] above 1000 nM. In series [4], the CC50 at 6 days is above 10000 nM.
The like results for `CN(C(=O)[C@H](CC1CC1)n1cc(C(F)(F)F)nn1)[C@@H](CC1CC1)C(=O)N1C[C@@]2(C[C@H]1C#N)Oc1cc(F)cc(F)c1NC2=O` [Compound 157] were, in that order, below 100 nM, below 100 nM, below 20 nM, above 1000 nM and above 10000 nM.
In the case of `CN(C(=O)[C@H](COC(C)(C)C)NC(=O)C(F)(F)F)[C@@H](CC1CC1)C(=O)N1C[C@@]2(C[C@H]1C#N)Oc1cc(F)cc(F)c1NC2=O` [Compound 158], the EC50 in series [1] and in series [5] (class symbols) was below 100 nM throughout. Also, the IC50 in series [2] was below 20 nM. This compound displayed a CC50 in series [3] above 1000 nM. Besides, the CC50 at 6 days in series [4] was above 10000 nM.
Regarding `C[C@@H](OC(C)(C)C)[C@H](NC(=O)C(F)(F)F)C(=O)N(C)[C@@H](CC1CC1)C(=O)N1C[C@@]2(C[C@H]1C#N)Oc1cc(F)cc(F)c1NC2=O` [Compound 159], the EC50 was 100 to 1000 nM in series [1] and below 100 nM in series [5] (class symbols). The IC50 in series [2] is below 20 nM. In series [3], this compound gave a CC50 above 1000 nM. Moreover, the CC50 at 6 days in series [4] is above 10000 nM.
Regarding `C[C@H](NC(=O)C(F)(F)F)C(=O)N(C)[C@@H](CC1CC1)C(=O)N1C[C@@]2(C[C@H]1C#N)Oc1ccccc1NC2=O` [Compound 160], the EC50 in series [1] and in series [5] (class symbols) was below 100 nM in each case. Moreover, the concentration for half-maximal inhibition (IC50) in series [2] was below 20 nM. In series [3], this compound came in with a CC50 above 1000 nM. In series [4], this compound yielded a CC50 at 6 days above 10000 nM.
`C[C@H](NC(=O)C(F)(F)F)C(=O)N(C)[C@@H](CC1CC1)C(=O)N1C[C@@]2(C[C@H]1C#N)Oc1ccccc1CNC2=O` [Compound 163]: the concentration for a half-maximal effect (EC50) in series [1] was below 100 nM; in series [5] (class symbols), 100 to 1000 nM. For the same compound, in series [2], the IC50 is below 20 nM. This compound returned a CC50 in series [3] above 1000 nM. For the same compound, the CC50 at 6 days in series [4] is above 10000 nM.
In the case of `CN(C(=O)[C@H](CC1CC1)NC(=O)C(F)(F)F)[C@@H](CC(C)(C)C)C(=O)N1C[C@@]2(C[C@H]1C#N)Oc1ccccc1CNC2=O` [Compound 164], the EC50 in series [1] and in series [5] (class symbols) was below 100 nM throughout. Besides, the IC50 in series [2] is below 20 nM. In addition, the CC50 in series [3] is above 1000 nM. The compound also gave a CC50 at 6 days in series [4] above 10000 nM.
`C[C@H](NC(=O)C(F)(F)F)C(=O)N(C)[C@@H](CC1CCC1)C(=O)N1C[C@@]2(C[C@H]1C#N)Oc1cccnc1NC2=O` [Compound 165]: the EC50 in series [1] and in series [5] (class symbols) was below 100 nM in each case. For the same compound, the concentration for half-maximal inhibition (IC50) in series [2] is below 20 nM. The CC50 in series [3] was above 1000 nM. For the same compound, in series [4], the CC50 at 6 days was above 10000 nM.
As to `C[C@H](NC(=O)C(F)(F)F)C(=O)N(C)[C@@H](CC(C)(C)C)C(=O)N1C[C@@]2(C[C@H]1C#N)Oc1cccnc1NC2=O` [Compound 166], the EC50 in series [1] is below 100 nM; in series [5] (class symbols), 100 to 1000 nM. Also, the IC50 in series [2] was below 20 nM. This compound also returned a CC50 in series [3] above 1000 nM. In series [4], this compound had a CC50 at 6 days above 10000 nM.
For `CN(C(=O)[C@H](CC1CC1)NC(=O)C(F)(F)F)[C@@H](CC1CC1)C(=O)N1C[C@@]2(C[C@H]1C#N)Oc1ccc(F)cc1CNC2=O` [Compound 167], in that order: below 100 nM, 100 to 1000 nM, below 20 nM, above 1000 nM and above 10000 nM.
